According to PubChem BioAssay AID2286 (Southern Research Specialized Biocontainment Screening …, 2010):
Active and inactive are the calls of the source.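 Rule for the calls: active = minimum cell viability of 80% or lower across the dose range, counted as toxic; inactive = minimum cell viability above 80%.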

Columns and labels:
[1] = MAGI-CCR5 and HeLa-R5-16 cytotoxicity, dose response, cytotoxicity control for HIV-1 fusion inhibitor project, cell-based, MAGI and MAGI-HeLa co-culture (AID 2286); conditions: MAGI-CCR5 cells viability, CellTiter-Glo ATP luminescence; for minimum viability: measured here: MAGI minimum viability across doses;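 for all read-outs here: cells exposed to compound for at least 64 h before ATP readout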;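 for minimum viability: 100% = median of DMSO vehicle wells with no ATP signal meaning 0%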;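 for viability: 100% = median of DMSO vehicle wells with no ATP signal meaning 0%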
[2] = system: MAGI-CCR5 cells viability, CellTiter-Glo ATP luminescence; assay: as above
[3] = MAGI-HeLa co-culture viability, at 50 µM, stronger effect = lower value
[4] = measured here: MAGI + HeLa-R5-16 co-culture viability
[5] = at 3.13 µM, stronger effect = lower value
[6] = at 12.5 µM, stronger effect = lower value
[7] = at 1.56 µM, stronger effect = lower value

CCOc1cc(/C=C2/C(=N)N3C(=NC2=O)SN=C3S(C)(=O)=O)ccc1OS(=O)(=O)c1ccccc1
viability [1, 3]: 68.9% | viability ([1]; at 50 µM (top of the series)): 81.5% (inactive) | minimum viability ([1]; at 50 µM, stronger effect = lower value): 81.5% | CC50 [2, 4]: > 50 µM

O=[N+]([O-])c1cc(Cl)cc(/C=N/NC(=S)Nc2ccc(S(=O)(=O)N3CCOCC3)cc2)c1O
viability [1, 3]: 65.6% | viability ([1]; at 50 µM (top of the series)): 98.8% (inactive) | minimum viability [1, 5]: 89.3% | CC50 [2, 4]: > 50 µM

COc1cc(/C=C2/SC(=S)NC2=O)ccc1OS(=O)(=O)c1ccc(C)cc1
viability [1, 3]: 28.8% | minimum viability ([1]; at 50 µM, stronger effect = lower value): 21.6% | CC50 [2]: 12 µM | CC50 [2, 4]: 28.9 µM

CC(/C=C1\SC(=S)N(CCCC(=O)Nc2ccc(C(=O)O)cc2)C1=O)=C\c1ccccc1
viability [1, 3]: 69.6% | minimum viability ([1]; at 50 µM, stronger effect = lower value): 60.9% | CC50 [2, 4]: > 50 µM

CN(C)S(=O)(=O)c1cccc(-c2nn(-c3ccccc3)cc2/C=C2\SC(=S)NC2=O)c1
viability [1, 3]: 35.7% | minimum viability ([1]; at 50 µM, stronger effect = lower value): 27.8% | CC50 [2]: 10 µM | CC50 [2, 4]: 25.5 µM

Oc1c(Cl)cc(Cl)c(Cl)c1Cc1c(O)c(Cl)cc(Cl)c1Cl
viability [1, 3]: 23% | minimum viability ([1]; at 50 µM, stronger effect = lower value): 15.7% | CC50 [2]: 1.96 µM | CC50 [2, 4]: 7.05 µM

O=C(O)CCCCCN1C(=O)/C(=C\c2cn(-c3ccccc3)nc2-c2cccs2)SC1=S
viability [1, 3]: 54.7% | minimum viability ([1]; at 50 µM, stronger effect = lower value): 47.2% | CC50 [2]: 44.3 µM | CC50 [2, 4]: > 50 µM

O=C(O)CCCN1C(=O)/C(=C/c2ccc(-c3nc4ccccc4s3)o2)SC1=S
viability [1, 3]: 99.7% | viability ([1]; at 50 µM (top of the series)): 92.1% (inactive) | minimum viability ([1]; at 0.1 µM, stronger effect = lower value): 87.2%

Cc1ccccc1N/N=C/c1sc(=O)n(Cc2cccc(C(=O)O)c2)c1Cl
viability [1, 3]: 109% | minimum viability ([1]; at 50 µM, stronger effect = lower value): 72.9%

O=C(O)CN1C(=O)/C(=C\c2cccc(OCc3ccc(Cl)cc3Cl)c2)SC1=S
viability [1, 3]: 126% | viability ([1]; at 50 µM (top of the series)): 95.6% (inactive) | minimum viability [1, 6]: 80.7%

Cc1c(CCC(=O)O)c(=O)oc2c(C)c3occ(-c4ccc(Cl)cc4)c3cc12
viability [1, 3]: 117% | minimum viability ([1]; at 25 µM, stronger effect = lower value): 64%

CCc1nnc(NS(=O)(=O)c2ccc(NC(=S)NC(=O)/C=C/c3ccc(C(C)C)cc3)cc2)s1
viability [1, 3]: 117% | viability ([1]; at 50 µM (top of the series)): 82.2% (inactive) | minimum viability ([1]; at 50 µM, stronger effect = lower value): 82.2%

C=CCOc1ccc(C(c2c(C(=O)O)[nH]c3ccccc23)c2c(C(=O)O)[nH]c3ccccc23)cc1
viability [1, 3]: 89% | viability ([1]; at 50 µM (top of the series)): 91.1% (inactive) | minimum viability ([1]; at 25 µM, stronger effect = lower value): 85.9%

COc1ccc(N=C2S/C(=C\c3ccc(OC(C)C(=O)O)c(OC)c3)C(=O)N2CCc2c[nH]c3ccccc23)cc1 (stereo unspecified)
viability [1, 3]: 148% | minimum viability ([1]; at 50 µM, stronger effect = lower value): 70.5%

CC(C)S(=O)(=O)C1=NSC2=NC(=O)/C(=C\c3ccc(-c4cccc(C(=O)O)c4)o3)C(=N)N21
viability [1, 3]: 90.9% | viability ([1]; at 50 µM (top of the series)): 101% (inactive) | minimum viability [1, 5]: 85.2%

O=C(O)c1cc(N2N=C(C(F)(F)F)/C(=C/C=C/c3ccco3)C2=O)ccc1Cl
viability [1, 3]: 120% | viability ([1]; at 50 µM (top of the series)): 92.8% (inactive) | minimum viability [1, 6]: 84.9%

COc1cccc(-c2coc3c(C)c4oc(=O)c(CCC(=O)O)c(C)c4cc23)c1
viability [1, 3]: 83.6% | minimum viability ([1]; at 50 µM, stronger effect = lower value): 55.5%

N=C1/C(=C/c2ccc(-c3cccc(C(=O)O)c3)o2)C(=O)N=C2SC=C(c3ccccc3)N12
viability [1, 3]: 104% | viability ([1]; at 50 µM (top of the series)): 85.3% (inactive) | minimum viability ([1]; at 50 µM, stronger effect = lower value): 85.3%

O=C(CSc1nc2ccccc2c(=O)n1Cc1ccccc1)Nc1ccc(Br)cc1C(=O)O
viability [1, 3]: 96.5% | viability ([1]; at 50 µM (top of the series)): 87.7% (inactive) | minimum viability ([1]; at 25 µM, stronger effect = lower value): 81.4%

COC1C(OC(=O)c2ccc(C)[nH]2)C(O)C(Oc2ccc3c(O)c(NC(=O)c4ccc(O)c(CC=C(C)C)c4)c(=O)oc3c2Cl)OC1(C)C (stereo unspecified)
viability [1, 3]: 111% | viability ([1]; at 50 µM (top of the series)): 81.8% (inactive) | minimum viability ([1]; at 50 µM, stronger effect = lower value): 81.8%

O=C(Nc1cc(C(=O)Nc2ccccc2C(=O)O)cc(C(=O)Nc2ccccc2C(=O)O)c1)c1ccccc1
viability [1, 3]: 122% | viability ([1]; at 50 µM (top of the series)): 113% (inactive) | minimum viability ([1]; at 6.25 µM, stronger effect = lower value): 90.9%

CC(c1ccccc1)N1C(=O)c2ccc(C(=O)Nc3ccccc3C(=O)O)cc2C1=O (stereo unspecified)
viability [1, 3]: 111% | viability ([1]; at 50 µM (top of the series)): 100% (inactive) | minimum viability ([1]; at 25 µM, stronger effect = lower value): 85.5%

Cc1cc(/C=c2\sc3nc4ccccc4n3c2=O)c(C)n1-c1ccc(C(=O)O)cc1
viability [1, 3]: 89% | minimum viability ([1]; at 50 µM, stronger effect = lower value): 59.4%

N#Cc1c(SCC(=O)Nc2nc3ccc(Br)cc3s2)sc2c(O)cc(=O)[nH]c12
viability [1, 3]: 81.1% | viability ([1]; at 50 µM (top of the series)): 83.3% (inactive) | minimum viability ([1]; at 50 µM, stronger effect = lower value): 83.3%

CCOc1cc(/C=N/Nc2cccc(C(=O)O)c2)ccc1OC(=O)c1ccccc1
viability [1, 3]: 110% | viability ([1]; at 50 µM (top of the series)): 95.7% (inactive) | minimum viability [1, 5]: 93.3%

O=C(COc1ccc(Cl)cc1)Nc1cc(NC(=O)COc2ccc(Cl)cc2)cc(C(=O)O)c1
viability [1, 3]: 99.5% | viability ([1]; at 50 µM (top of the series)): 105% (inactive) | minimum viability [1, 6]: 98.6%

O=C1NN(c2ccc(F)c(Cl)c2)C(=O)/C1=C\c1cccc(OC(=O)c2cccs2)c1
viability [1, 3]: 111% | viability ([1]; at 50 µM (top of the series)): 92.7% (inactive) | minimum viability ([1]; at 50 µM, stronger effect = lower value): 92.7%

COc1cc(/C=C2/C(=O)NN(c3ccc(Cl)cc3)C2=O)ccc1OC(=O)c1ccco1
viability [1, 3]: 115% | viability ([1]; at 50 µM (top of the series)): 96.4% (inactive) | minimum viability ([1]; at 50 µM, stronger effect = lower value): 96.4%

COc1cc(/C=C2/SC(=S)N(CC(=O)O)C2=O)ccc1OCC(=O)Nc1ccc(C)c(C)c1
viability [1, 3]: 107% | viability ([1]; at 50 µM (top of the series)): 103% (inactive) | minimum viability ([1]; at 0.2 µM, stronger effect = lower value): 98.9%

N#Cc1c(-c2ccccc2)nc(SCC(=O)Nc2ccc(OC(F)(F)Cl)cc2)[nH]c1=O
viability [1, 3]: 102% | viability ([1]; at 50 µM (top of the series)): 96.6% (inactive) | minimum viability ([1]; at 25 µM, stronger effect = lower value): 84.9%

CCCCCCc1c(C)c2ccc(OCC(=O)N[C@@H](Cc3ccccc3)C(=O)O)cc2oc1=O
viability [1, 3]: 101% | viability ([1]; at 50 µM (top of the series)): 96.7% (inactive) | minimum viability [1, 5]: 90.1%

CCOc1ccc2nc(NC(=O)CSc3nc(-c4ccccc4)c(C#N)c(=O)[nH]3)sc2c1
viability [1, 3]: 125% | viability ([1]; at 50 µM (top of the series)): 105% (inactive) | minimum viability ([1]; at 0.78 µM, stronger effect = lower value): 92.7%

C=CCOC(=O)C1=C(C)N=c2s/c(=C3\C(=O)N(CC(=O)O)c4ccccc43)c(=O)n2C1c1ccc(OC)cc1 (stereo unspecified)
viability [1, 3]: 105% | viability ([1]; at 50 µM (top of the series)): 97.3% (inactive) | minimum viability ([1]; at 25 µM, stronger effect = lower value): 85.1%

Cc1c(Cl)cccc1NS(=O)(=O)c1ccc2c(c1)C1C=CCC1C(c1ccc(C(=O)O)cc1)N2 (stereo unspecified)
viability [1, 3]: 121% | viability ([1]; at 50 µM (top of the series)): 91% (inactive) | minimum viability [1, 7]: 87%

COc1cccc(NS(=O)(=O)c2ccc3c(c2)C2C=CCC2C(c2ccc(C(=O)O)cc2)N3)c1 (stereo unspecified)
viability [1, 3]: 120% | viability ([1]; at 50 µM (top of the series)): 108% (inactive) | minimum viability [1, 7]: 88.6%

O=C(O)CN1C(=O)/C(=C\c2cc(Br)ccc2OCc2ccc(F)cc2)SC1=S
viability [1, 3]: 91.5% | viability ([1]; at 50 µM (top of the series)): 97.7% (inactive) | minimum viability ([1]; at 50 µM, stronger effect = lower value): 97.7%

CS(=O)(=O)C1=NSC2=NC(=O)/C(=C\c3ccc(OC(=O)c4ccco4)c(Br)c3)C(=N)N21
viability [1, 3]: 106% | viability ([1]; at 50 µM (top of the series)): 94.8% (inactive) | minimum viability ([1]; at 50 µM, stronger effect = lower value): 94.8%

O=C(O)c1ccc(-c2ccc(/C=c3/sc4nc5ccccc5n4c3=O)o2)cc1Cl
viability [1, 3]: 116% | viability ([1]; at 50 µM (top of the series)): 92.3% (inactive) | minimum viability ([1]; at 25 µM, stronger effect = lower value): 87.5%

Cc1c(CC(=O)O)c(=O)oc2c(C)c3occ(-c4ccc(Br)cc4)c3cc12
viability [1, 3]: 123% | minimum viability ([1]; at 50 µM, stronger effect = lower value): 75.8%

O=C(O)COc1ccc(/C=N/NC(=O)c2ccc(-c3csc(Nc4ccc(Cl)cc4)n3)cc2)cc1
viability [1, 3]: 96.5% | viability ([1]; at 50 µM (top of the series)): 96.8% (inactive) | minimum viability ([1]; at 25 µM, stronger effect = lower value): 83.4%

CC1(C)CC(=O)C2=C(C1)c1c(ccc3ccccc13)NC2c1cc([N+](=O)[O-])cc([N+](=O)[O-])c1O (stereo unspecified)
viability [1, 3]: 107% | minimum viability ([1]; at 50 µM, stronger effect = lower value): 56%

Cc1ccc(-c2cc(C(=O)Nc3ccc(S(=O)(=O)Nc4onc(C)c4C)cc3)c3ccccc3n2)cc1
viability [1, 3]: 89.9% | viability ([1]; at 50 µM (top of the series)): 98.7% (inactive) | minimum viability [1, 5]: 86%

O=C(O)c1ccc(NS(=O)(=O)c2ccc3c(c2)C2C=CCC2C(c2ccccc2F)N3)cc1 (stereo unspecified)
viability [1, 3]: 111% | viability ([1]; at 50 µM (top of the series)): 102% (inactive) | minimum viability [1, 5]: 93.8%

O=C(O)c1[nH]c2ccccc2c1C(c1cc(Br)ccc1O)c1c(C(=O)O)[nH]c2ccccc12
viability [1, 3]: 82% | viability ([1]; at 50 µM (top of the series)): 85.4% (inactive) | minimum viability ([1]; at 50 µM, stronger effect = lower value): 85.4%

O=C(O)/C(CC(=O)c1ccc(Cl)cc1)=N/Nc1ccc([N+](=O)[O-])cc1[N+](=O)[O-]
viability [1, 3]: 114% | viability ([1]; at 50 µM (top of the series)): 84% (inactive) | minimum viability ([1]; at 50 µM, stronger effect = lower value): 84%

O=C(O)c1[nH]c2ccccc2c1C(c1ccccc1)c1c(C(=O)O)[nH]c2ccccc12
viability [1, 3]: 93.2% | viability ([1]; at 50 µM (top of the series)): 86% (inactive) | minimum viability [1, 6]: 81.8%

CCc1ccc(N=C2NC(=O)/C(=C/c3cc(Br)c(OCC(=O)O)c(OC)c3)S2)cc1
viability [1, 3]: 94.3% | viability ([1]; at 50 µM (top of the series)): 82.9% (inactive) | minimum viability ([1]; at 50 µM, stronger effect = lower value): 82.9%

Cc1ccc(S(=O)(=O)Oc2ccc(/C=C3\C(=N)N4N=C(S(C)(=O)=O)SC4=NC3=O)cc2)cc1
viability [1, 3]: 103% | viability ([1]; at 50 µM (top of the series)): 98.5% (inactive) | minimum viability ([1]; at 25 µM, stronger effect = lower value): 97.1%

CCC(Sc1nc2ccsc2c(=O)n1Cc1ccc(C(=O)O)cc1)C(=O)Nc1ccc(C)c(Cl)c1 (stereo unspecified)
viability [1, 3]: 98% | viability ([1]; at 25 µM (top of the series)): 93.6% (inactive) | minimum viability [1, 5]: 86.7%
